Test results published in patent publication US7875638B2, “Synthesis of epothilones, intermediates thereto, analogues and uses thereof” (Sloan-Kettering Institute for Cancer Research, priority 2002, dated 2011).
≈ marks a conversion by molar mass, not a printed value. Entries after “also recorded” stand apart in the source; their conditions may differ. Like-named read-outs stand apart in the source and are kept apart here. Marks after values point to notes of the source that are not given here.

Legend:
[1] = test system: MRC-5; test: XTT cell growth inhibition, MRC-5; format: cell-based, human; conditions: MRC5; Embryonic lung fibroblasts (human); XTT tetrazonium assay; read-out: IC50 (nM), MRC-5
[2] = test system: OPM-2 myeloma cells; test: Cell cycle analysis (propidium iodide DNA staining), OPM-2; format: cell-based, human
Description: FIG. 95 is cell cycle analysis as determined by Propidium iodide DNA staining. […] The two drugs induced the same patter of cell cycle arrest.

[3] = test system: CCRF-CEM/Taxol; format: cell-based, human; conditions: Homo sapiens, CCRF-CEM, XTT assay following 72 h inhibition
[4] = test system: myeloma cell lines (RPMI8226, CAG); test: XTT cell proliferation, myeloma cell lines; format: cell-based, human
[5] = test system: Human CD34+ stem cells; test: Apoptosis and 2 weeks progenitor assays on CD34+ stem cells; format: cell-based; conditions: 24 hours incubation, umbilical cord blood CD34+
Description: Then drugs were washed out and annexin V staining was performed. Solid area represents vehicle control and open area represents drug treated group. There is no obvious increased apoptosis of non-cycling human CD34+ cells with short period of exposure to epothilones.
Drug cytotoxicity to hematopoietic stem cells is always a major concern. Human CD34+ stem cells were isolated from umbilical cord blood and incubated with either dEpoB or Fludelone alone for 24 hours. After washing out the drugs, apoptosis assays and 2 weeks progenitor assays were performed to evaluate the influence of epothilone to stem cells.

[6] = test system: RPMI8226 myeloma cells; test: Pulse exposure, washout and cell count; format: cell-based, human
[7] = test system: CCRF-CEM
Description: Cytotoxicity Assays. In preparation for in vitro cytotoxicity assays, cells were cultured at an initial density 2-5×10^4 cells per milliliter. […] For both methods, the absorbance of each well was measured with a microplate reader (Power Wave XS, Bio-Tek, Winooski, Vt.).
A typical experiment involves culturing cells (e.g., CCRF-CEM) at an initial density of 2-5×10^4 cells per ml. […] For cells that were grown in suspension (such as CCRF-CEM and its sublines), cytotoxicitiy is measured by using the 2,-3-bis(2-methoxy-4-nitro-5-sulfophenyl)-5 carboxanilide)-2H terazodium hydroxide (XTT)-microculture tetrazonium method in duplicate in 96-well microtiter plates. For both methods, the absorbance of each well is measured with a microplate reader (EL-340, Bio-Tek, Burlington, Vt.). Each run entails six or seven concentrations of the tested drugs. Dose-effect relationship data are analyzed with the median-effect plot.
Cytotoxicity Assays: In preparation for in vitro cytotoxicity assays, cells were cultured at an initial density 2-5×10^4 cells per milliliter. […] For both methods, the absorbance of each well was measured with a microplate reader (Power Wave XS, Bio-Tek, Winooski, Vt.).

[8] = test system: MOLP-5; test: XTT cell growth inhibition, MOLP-5; format: cell-based; conditions: Homo sapiens; Myeloma; XTT tetrazonium assay; read-out: IC50 (nM), MOLP-5
[9] = test system: SKI-DLBCL; test: XTT cell growth inhibition, SKI-DLBCL; format: cell-based; conditions: Homo sapiens; Lymphoma; XTT tetrazonium assay
[10] = test system: human mammary carcinoma MX-1 xenograft; test: MX-1 xenograft in nude mice; conditions: for Body weight on the 16th day after treatment, % of the pretreatment control: Q2Dx6
[11] = test system: CAG myeloma cells; test: Disseminated CAG xenograft myeloma mice; conditions: 20 mg/kg
Description: 10×10^6 CAG myeloma cells engineered with Luc-eGFP-TK fusion gene were injected intravenously into the mouse-tail vein, and the treatment was started when decent myeloma cells implantation was detected by bioluminescence imaging on day 7.

[12] = in vitro; conditions: human, s9
Description: Stability of epothilones in mouse and in human liver S9 fraction. The stability study was carried out with a fully automated HPLC system which consisted of a Prospekt-2 (Spark Holland, Netherlands) sample preparation system and an Agilent 1100 HPLC system. Briefly, the Prospekt 2 picked up a C8 extraction cartridge and washed it with acetonitrile and water. The Agilent autosampler, set at 37° C., picked up 20 μl of the sample, loaded it onto the cartridge, washed it with water, then the Prospekt-2 diverted the mobile phase stream through the extraction cartridge onto the analytical column, Reliance Stable Bond C8 4×80 mm with guard column (MacMod, Chadds Ford, Pa.) and the eluent was monitored at 250 nm. […] Sample preparation involved the addition of equal volumes of plasma to PBS for a total volume of 300-400 μl, filtered, and the addition of 0.5-2 μl of the substrate (20 mM) to achieve about 30-50 mAU at 250 nm in the HPLC analysis. For pooled human liver microsome S9 fraction (Xeno Tech, Lenex, Kans.), 20 μl (400 μg) or S9 fraction was mixed with 280 μl of PBS then proceeded as above. The sampling period was controlled by the autosampler and peak area data were collected to compare the rate of disappearance of the parent compound.
Stability of epothilones in mouse and in human liver S9 fraction: The stability study was carried out with a fully automated HPLC system which consisted of a Prospekt-2 (Spark Holland, Netherlands) sample preparation system and an Agilent 1100 HPLC system. Briefly, the Prospekt 2 picked up a C8 extraction cartridge and washed it with acetonitrile and water. The Agilent autosampler, set at 37° C., picked up 20 μl of the sample, loaded it onto the cartridge, washed it with water, then the Prospekt-2 diverted the mobile phase stream through the extraction cartridge onto the analytical column, Reliance Stable Bond C8 4×80 mm with guard column (MacMod, Chadds Ford, Pa.) and the eluent was monitored at 250 nm. […] Sample preparation involves the addition of equal volumes of plasma to PBS for a total volume of 400 μl, filtered, and the addition of 0.5-2 μl of the substrate (20 mM) to achieve about 30-50 mAU at 250 nm in the HPLC analysis. For pooled human liver microsome S9 fraction (Xeno Tech, Lenex, Kans.), 20 μl (400 μg) or S9 fraction was mixed with 280 μl of PBS then proceeds as above. The sampling period was controlled by the autosampler and peak area data were collected to compare the rate of disappearance of the parent compound.

[13] = Solubility in water; conditions: water
[14] = test system: CAG myeloma cell lines; test: Annexin V staining, CAG; format: cell-based, human; conditions: 24 hours treatment
Description: In early apoptotic cells, the membrane phospholipids phosphatidylserine (PS) is translocated from the inner to the outer leaflet of the plasma membrane, thereby exposing PS to the external cellular environment. Annexin V is a 35-36 kD Ca^2+ dependent phospholipids-binding protein that has a high affinity for PS, and binds to cells with exposed PS. In conjunction with a vital dye such as 7-amino-actinomycin (7-AAD) staining dead cells, this assay allows to identify early apoptotic cells. […] Note that X-axis is Annexin staining and Y-axis is 7-AAD staining.

[15] = test system: H929; test: XTT cell growth inhibition, H929; format: cell-based; conditions: Homo sapiens, NCI-H929; Myeloma; XTT tetrazonium assay; read-out: IC50 (nM), H929
[16] = test system: human lung carcinoma xenograft (A549); test: A549 xenograft in nude mice
[17] = test system: OPM-2; test: XTT cell growth inhibition, OPM-2; format: cell-based; conditions: Homo sapiens, OPM-2; Myeloma; XTT tetrazonium assay; read-out: IC50 (nM), OPM-2
[18] = test system: primary CD138 MM cells; test: Apoptosis of primary myeloma cells; format: cell-based, human; conditions: cells obtained from patient marrow
[19] = test system: RPMI-8226 (human multiple myeloma cell line); test: Global gene expression (Affymetrix chip AU133 2.0); format: cell-based; conditions: 6 h

Structure (SMILES): C/C(=C\c1csc(C)n1)[C@@H]1C/C=C(/C(F)(F)F)C/C=C/[C@H](C)[C@H](O)[C@@H](C)C(=O)C(C)(C)[C@@H](O)CC(=O)O1 [Compound 29, 26-trifluoro-trans-9,10-dehydro-12,13-desoxyepothilone B]
- IC50 [1]: 7.4 ± 2.7 nM
- Cell cycle arrest [2]: arrested in G2M phase starting from 6 hours and absolutely blocked at 24 hours
- IC50 ([3]; Table 1-2, read-out: IC50 (μM), CCRF-CEM/Taxol): 0.0057 µM
- IC50 ([3]; Table 1-3, read-out: IC50, C/Taxol): 0.0057 µM
- Potency relative to dEpoB on MM cell lines [4]: ~5 fold
- IC50 ([4]; Homo sapiens, RPMI-8226, read-out: IC50, myeloma cell lines (RPMI8226, CAG)): 7.6 to 36.7 nM
- Toxicity on non-cycling stem cells [5]: no significant toxicity
- Decrease of the number of cells from input [6]: ~50%
- Decrease of tumor cell numbers [6]: 50%
- Cell death after pulse exposure ([6]; 24 hrs exposure): all cells being dead by 48 hrs
- Attenuation of cytotoxicity by the three fluorine atoms at C26, factor [7]: ≤ 4
- IC50 ([7]; human): 0.0032 ± 0.0003 µM
- Cytotoxicity relative to the benchmark compound dEpoB ([7]; in the cell): ~1.8 fold
- IC50 ([7]; read-out: IC50 (μM), CCRF-CEM, XTT assay following 72 h inhibition, Table 1-2): 0.0035 µM
- IC50 ([7]; read-out: IC50, CCRF-CEM(C), XTT assay following 72 h inhibition, Table 1-3): 0.0035 µM
- IC50 [8]: 14.4 ± 2.6 nM
- IC50 [9]: 60 ± 4.2 nM
- Body weight gain during the last three doses ([10]; 10 mg/kg, Q2DX12): 6%
- Maximal body weight decrease ([10]; 10 mg/kg, Q2DX12): 12%
- Tumor free after Q2Dx6 6 hr-iv. infusion (mice) ([10]; 20 mg/kg): four out of four
- Therapeutic outcome in MX-1 xenograft model ([10]; 20 mg/kg and 30 mg/kg, Q2Dx6, 6 hour infusions): curative
- Time for body weight to return to pretreatment control level after suspension of treatment ([10]; 20 mg/kg or 30 mg/kg Q2Dx6, i.v.-6 hr infusion): 12 to 18 days
- Body weight on the 16th day after treatment, % of the pretreatment control ([10]; 20 mg/kg): 109%
- Reappearance of the tumor on the 20th day after stopping treatment ([10]; 20 mg/kg, Q2Dx6, 6 hour infusion): no reappearance
- Tumor reappearance on 27th day after stopping treatment (mice) ([10]; 20 mg/kg, Q2Dx6, 6 hr iv infusion): 2 out of 4
- Tumor reappearance on 27th day after stopping treatment (mice) ([10]; 20 mg/kg, Q2Dx6, 6 hr iv infusion, listed as 26-trifluoro-9,10-dehydro-12,13-dexoxy-epothilone B): 2/4
- Transient drop in body weight ([10]; 20 mg/kg, Q2Dx6, 6 hr. iv infusion): up to 26%
- Decrease in body weight without lethality ([10]; 30 mg/kg): 27%
- Body weight on the 16th day after treatment, % of the pretreatment control ([10]; 30 mg/kg): 98%
- Tumor disappearance earlier than the 20 mg/kg dosage ([10]; 30 mg/kg, Q2Dx6, 6 hour iv infusion): 2 to 3 days
- Relapse after suspension of treatment ([10]; 30 mg/kg, Q2Dx6, 6 hr iv infusion): absence of any relapse for over two months
- Maximal tolerated dose ([10]; Q2Dx6, 6 hour infusions): ~30 mg/kg
- Cell kill ([10]; assuming a tumor doubling time of 4 days): > 8.5 log
- Tumor relapse after cessation of treatment ([10]; extra large MX-1, 25 mg/kg Q3Dx5 then Q3Dx4): No relapse was observed on D180
- Relapse (49 days after stopping treatment) ([10]; female nude mice, large MX-1, 30 mg/kg orally): no relapse on D115
- Tumor disappearance ([10]; female nude mice, large MX-1, 30 mg/kg orally Q2Dx7 then Q2Dx9): All three mice's tumor disappeared on D40, 45 and 48
- Doses required for MX-1 tumor disappearance ([10]; mouse, in vivo): nine
- Duration of MX-1 tumor disappearance ([10]; mouse, in vivo): 64 days
- Mice relapsed on day 10 after suspension of treatment ([10]; mouse, in vivo): 0/4
- Mouse tumors disappeared, large MX-1 tumors (0.5 g) ([10]; mouse, in vivo): 4/4
- Relapse after suspension of treatment ([10]; mouse, in vivo): no relapse after 62 days
- Tumor disappeared during the resting period (mice) ([10]; mouse, in vivo): 2 out of 5
- Tumor free after Q2Dx6 6 hr-iv. infusion (mice) ([10]; mouse, in vivo): 4/4
- Tumor reappeared on day 10 after administration (mice) ([10]; mouse, in vivo): 0/4^[b]
- Tumor relapse after cessation of treatment ([10]; mouse, in vivo): no tumor relapse in all 5 animals on D165
- Tumor shrinkage during the resting period of 9 days (D34-D43) ([10]; mouse, in vivo): > 99.3%
- Tumor shrinkage ([10]; mouse, in vivo, iv, 25 mg/kg): > 97.4%
- Tumor disappearance (mice) ([10]; mouse, in vivo, po, 30 mg/kg): 2 out of 4
- Tumor disappearance after additional two doses (mice) ([10]; mouse, in vivo, po, 30 mg/kg): 4 out of 4
- Tumor free following the cessation of treatment ([10]; mouse, in vivo, listed as 26-trifluoro-9,10-trans-dehdyro-epothilone D): 3.8 months
- Tumor free following the cessation of treatment ([10]; mouse, in vivo, listed as Fludelone): 4.3 months
- Survival after transplanting CAG cells (Kaplan-Meier) [11]: > 80 days
- Survival versus controls ([11]; intraperitoneal): at least doubled the survival time than controls
- Tumor burden by bioluminescence imaging ([11]; listed as Fludelone): significant decreased tumor photon emissions; also recorded: significantly decreased tumor burden
- half-life [12]: 10.5 ± 2.3 h
- solubility [13]: 20 µg/mL (≈ 36.8 µM)
- Apoptosis (Annexin V / 7-AAD) [14]: majority of cells either enter apoptosis or are dead
- IC50 [15]: 9.2 ± 1.9 nM
- Body weight decrease without lethality ([16]; 25 mg/kg, Q2DX6, twice): ≤ 35%
- Tumor eradication ([16]; 29: after two more doses, dEpoB: 30 mg/kg, Q2Dx6): 4 of the 4
- IC50 [17]: 8.2 ± 2.2 nM
- Tumor apoptosis within 24 hrs [18]: induced tumor apoptosis within 24 hrs
- Fold change in expression, APP [19]: +2.14 fold
- Fold change in expression, BASP1 [19]: +2.83 fold
- Fold change in expression, HIST1 [19]: −2.00 fold
- Fold change in expression, HNRPD [19]: −2.46 fold
- Fold change in expression, JUN [19]: +3.25 fold
- Fold change in expression, SKIL [19]: +2.83 fold
- Fold change in expression, SUV39 H2 [19]: −2.00 fold
- Fold change, AIM2 [19]: −2.64 fold
- Fold change, BCL3 [19]: +3.25 fold
- Fold change, CA4 [19]: −2.14 fold
- Fold change, HLA-II DPα [19]: −3.73 fold
- Fold change, Heme oxygenase [19]: +2.30 fold
